Reference: patent US6468989B1, “Gel compositions containing metronidazole” (Dow Pharmaceutical Sciences, priority 2000, dated 2002)
Like-named read-outs stand apart in the source and are kept apart here. One block for each compound: values may come before it.

Assays:
[1] = Solubility of imidazole compounds in purified water, 4% HPCD and 4% HECD; type: physicochemical
Protocol: Six sample solutions were prepared as described in Example 1 except as follows. Two groups of three sample solutions each were prepared. […] The solubility of each of the samples was determined as shown in Table 5 and was compared to the solubility of the imidazole in purified water without a solubility enhancer.

[2] = Solubilization of metronidazole by HPCD, niacinamide and their combination (visual, 1 week storage); type: physicochemical
Protocol: HPCD and niacinamide solutions were prepared and the concentrations of each to obtain a stable 1% metronidazole solution at 5° C. were determined as 5% and 3%, respectively. Then various combinations of HPCD and niacinamide concentrations in aqueous solution containing 1% metronidazole were prepared as in Example 1.
In the combination solutions, HPCD concentration was in the range of 0% to 5% and the concentration range of niacinamide was 0% to 3%. The solutions were kept at room temperature and 5° C. for a week to assess the maintenance of the dissolved state.
For solubilization effects of HPCD and niacinamide combinations, the concentrations of HPCD and niacinamide were determined in 1% metronidazole solutions, which were clear with no precipitate. Metronidazole solubility was visually determined after a week storage. In order to evaluate the solubilization capacity of the HPCD and niacinamide combinations, the niacinamide concentration required to make 1.5% metronidazole in 5% HPCD solution was determined by keeping the solution at 5° C. for 1 week.

[3] = Solubility of metronidazole in aqueous solutions with different HPCD concentrations, estimated by solution stability; type: physicochemical; conditions: 1-day storage at room temperature followed by 1-day storage at 5° C.
Protocol: Various solutions of hydroxypropyl-beta-cyclodextrin (HPCD) were prepared by combining a quantity of HPCD in water to yield the desired concentration of HPCD between 1% w/w and 15% w/w. To each HPCD solution, an excess amount of metronidazole was added. The solutions were placed in a shaker bath at about 60° C. for about 2 hours or more. After shaking, the samples were permitted to cool to room temperature and were stored at 5° C. […]
In accordance with the invention, stable aqueous metronidazole at the following concentrations may be obtained with the following concentrations of HPCD as shown in Table 1 and FIG. 1.

[4] = cited from earlier work

% w/w solubility [1]: less than 0.01 % w/w
Increase in solubility versus purified water [1]: not measurable
SMILES: CCC(C)n1ncn(-c2ccc(N3CCN(c4ccc(OCC5COC(Cn6cncn6)(c6ccc(Cl)cc6Cl)O5)cc4)CC3)cc2)c1=O (stereo not shown) [Itraconazole, itraconazole]

% w/w solubility [1]: less than 0.01 % w/w
% w/w solubility ([1]; 4% HECD): 0.03-0.05 % w/w
% w/w solubility ([1]; 4% HPCD): 0.01-0.03 % w/w
SMILES: CC(=O)N1CCN(c2ccc(OCC3COC(Cn4ccnc4)(c4ccc(Cl)cc4Cl)O3)cc2)CC1 (stereo not shown) [Ketoconazole, ketoconazole]

Appearance of solution ([1]; 4% HECD and metronidazole solution): became yellow
Appearance of solution ([1]; 4% HPCD and metronidazole solution): remained clear and colorless
Niacinamide concentration that permitted a 1.5% metronidazole solution ([2]; 5% HPCD): 6%
Time the 1.5% metronidazole solution stayed clear with no precipitate ([2]; 5% HPCD and 6% niacinamide, 5° C.): 1 week
Precipitation of 1.5% metronidazole solution ([2]; 5% HPCD, no niacinamide, room temperature): showed a precipitate
HPCD concentration required to make a stable 1% metronidazole aqueous solution ([2]; HPCD alone, 5° C. for 1 week): 5%
Precipitation of aqueous solution containing 1% metronidazole ([2]; HPCD reduced to 4% or less, 5° C. for 1 week): showed a precipitation formation
HPCD concentration giving a stable 1% MTZ solution ([2]; in combination with 0.5% niacinamide): 1.0%
Niacinamide concentration giving a stable 1% MTZ solution ([2]; in combination with 1.0% HPCD): 0.5%
Niacinamide concentration required to make 1% metronidazole aqueous solution ([2]; niacinamide alone, 5° C. for 1 week): 3%
Precipitation of aqueous solution containing 1% metronidazole ([2]; niacinamide reduced to 2% or less, 5° C. for 1 week): showed a precipitation formation
Solubility of MTZ ([3]; 0.0 % w/w HPCD): 0.7 % w/w
Solubility of MTZ ([3]; 2.0 % w/w HPCD): 1.0 % w/w
Solubility of MTZ ([3]; 8.0 % w/w HPCD): 1.5 % w/w
Solubility of MTZ ([3]; 10.0 % w/w HPCD): 2.0 % w/w
Solubility of MTZ ([3]; 15.0 % w/w HPCD): 2.5 % w/w
SMILES: Cc1ncc([N+](=O)[O-])n1CCO [Metronidazole, 1-(2-hydroxyethyl)-2-methyl-5-nitroimidazole]

SMILES: C[C@H]1O[C@@H](O[C@H]2[C@@H](O)C[C@H](O[C@H]3[C@@H](O)C[C@H](O[C@H]4CC[C@@]5(C)[C@H](CC[C@@H]6[C@@H]5C[C@@H](O)[C@]5(C)[C@@H](C7=CC(=O)OC7)CC[C@]65O)C4)O[C@@H]3C)O[C@@H]2C)C[C@H](O)[C@@H]1O [digoxin]
Water solubility combined with BCD relative to combined with HPCD [4]: five times more water soluble
